The text below walks through data of patent publication US20240181014A1 (priority 2021, published 2024).

For data set [1] the following is noted: compounded ALA (injection, suppository, topical, troche; intravenous); cited from earlier work.
Data set [2] relates to post-COVID-19 syndrome patients. Format: in vivo, human.

Where two headings read alike, the source gives them in different places.

For the compound `O=C(O)CCCC[C@@H]1CCSS1` [ALA, (R)-5-(1,2-Dithiolan-3-yl)pentanoic acid], the “safety concerns in available clinical reports” value in data set [1] is listed as “no serious safety concerns”.

In the case of `CC[C@H](C)[C@H](NC(=O)[C@H](CO)NC(=O)[C@H](CC(N)=O)NC(=O)[C@H](CC(C)C)NC(=O)[C@H](Cc1ccc(O)cc1)NC(=O)[C@H](CCCCN)NC(=O)[C@H](CCCCN)NC(=O)[C@@H](NC(=O)[C@H](C)NC(=O)[C@H](CCSC)NC(=O)[C@H](CCC(N)=O)NC(=O)[C@H](CCCCN)NC(=O)[C@H](CCCNC(=N)N)NC(=O)[C@H](CC(C)C)NC(=O)[C@H](CCCNC(=N)N)NC(=O)[C@@H](NC(=O)[C@H](Cc1ccc(O)cc1)NC(=O)[C@H](CC(N)=O)NC(=O)[C@H](CC(=O)O)NC(=O)[C@@H](NC(=O)[C@H](Cc1ccccc1)NC(=O)[C@@H](NC(=O)[C@H](C)NC(=O)[C@H](CC(=O)O)NC(=O)[C@H](CO)NC(=O)[C@@H](N)Cc1c[nH]cn1)C(C)C)[C@@H](C)O)[C@@H](C)O)C(C)C)C(=O)N[C@@H](CC(C)C)C(=O)N[C@@H](CC(N)=O)C(N)=O` [Aviptadil], in data set [2] (Example 4, patient), the “blood oxygenation value pO2 at end of treatment” value stood at 97 mmHg and the “status at control visit” value is “considered healthy”. For the same compound, in data set [2] (Example 4, patient, needed intermitted oxygenation before), the external oxygen supply entry is “off external oxygen supply”. Further, in data set [2] (Example 4, patient, pO2 92 mmHg before), the “blood oxygenation value pO2 at room air” value came out at 96 mmHg. Besides, the “breathing at end of treatment” value in data set [2] (Example 4, patient, severe difficulties to breath before) is on record as “breathed normally”. In data set [2] (Example 5, patient), the “breathing at end of treatment” value is “breathed normally” and the “status at control visit” value is on record as “considered healthy without any further post-COVID symptoms”. The “blood oxygenation value pO2 at room air at end of treatment” value in data set [2] (Example 5, patient, pO2 93 mmHg before) turned out to be 98 mmHg. Besides, in data set [2] (Example 5, patient, unable to work due to extreme fatigue and cough before), the “ability to work at end of treatment” value is reported as “returned to their professional work”.
